According to patent publication US20100144858A1, “Treatment of movement disorders with a metabotropic glutamate 4 receptor positive allosteric modulator” (priority 2003, published 2010):
“Also recorded” adds a separate entry of the source. Read-outs that look alike come from different tables or passages of the source.

How the values were obtained:
[1] = tested on: reserpine-induced akinesia; test: Reserpine-induced akinesia model of Parkinson's disease; type: in vivo; conditions: rat, 75 nmol icv, reserpine 5 mg/kg sc, beam breaks/30 min
Description: Behavior: Third ventricle cannulated male Sprague-Dawley rats (250-350) were purchased from Taconic Farms (Germantown, N.Y.) with guide cannula implanted such that subsequent placement of an injection cannula allowed for infusion into the third ventricle. These rats were used for intracerebral ventricular (icy) injection of test compounds within one week of arrival to the testing facility. All experiments were carried out during the light cycle (6.00-18.00).
Rats were injected with reserpine (5 mg/kg sc, dissolved in 1% acetic acid) and kept in their home cages for 1.5-2 hr post-injection. Activity was measured by placing rats in photocell activity cages (Hamilton-Kinder, Inc., Poway, Calif.) equipped with 16×16 infrared beams. […] Five min following the injection of test compound or vehicle, motor activity was recorded for an additional 30 min for each rat. Motor activity (cumulative beam breaks/30-min period) was recorded both pre- and post-drug treatment for each rat. […] Post hoc comparisons were performed using the Bonferroni test. Statistical significance was achieved when p<0.05. Data are expressed as mean +/− one SEM.

human mGluR4 [2] = target: T1, human mGluR4 (Homo sapiens, UniProt Q14833); test: FLIPR Ca2+ flux assay in mGluR4 CHO cells
Description: (§1) Cells expressing mGluR2, mGluR4, mGluR7 and mGluR8 were coexpressed with Gα16, Gαqi5, Gα15 and Gα15, respectively. Cells were evaluated using a fluorometric imaging plate reader (FLIPR, Molecular Devices, Sunnyvale, Calif.), to measure their ability to mobilize Ca^2+ in response to appropriate agonists (i.e., glutamate and L-AP4).
(§2) CHO or HEK cells expressing mGluR receptors (mGluR CHO or HEK cells) were plated (50,000-70,000 cells/well) in clear-bottomed, poly-D-lysine-coated plates (Becton-Dickinson) in glutamate/glutamine-free medium. The plated cells were grown overnight at 37° C. in the presence of 6% CO2. The following day, the cells were washed with 3×100 μl assay buffer (Hanks Balanced Salt Solution containing 20 mM HEPES, 2.5 mM probenecid, and 0.1% bovine serum albumin) using a Skatron Embla cell washer. The cells were incubated with 1 μM Fluo-4AM (Molecular Probes, Eugene, Oreg.) for 1 h at 37° C. and 6% CO2. The extracellular dye was removed by washing as described above. […] Ca^2+ flux was measured using a FLIPR.

rat mGluR4 = target: T2, rat mGluR4 (Rattus norvegicus, UniProt P31423); test: FLIPR Ca2+ flux assay, rat mGluR4; type: cell-based; conditions: n=3, read-out: EC50 for L-AP4 activation of rat mGluR4
T2 construct: expressed in transfected cells; host or cells: CHO or HEK cells, co-expressing Gαqi5
T2 sequence (P31423 33-912): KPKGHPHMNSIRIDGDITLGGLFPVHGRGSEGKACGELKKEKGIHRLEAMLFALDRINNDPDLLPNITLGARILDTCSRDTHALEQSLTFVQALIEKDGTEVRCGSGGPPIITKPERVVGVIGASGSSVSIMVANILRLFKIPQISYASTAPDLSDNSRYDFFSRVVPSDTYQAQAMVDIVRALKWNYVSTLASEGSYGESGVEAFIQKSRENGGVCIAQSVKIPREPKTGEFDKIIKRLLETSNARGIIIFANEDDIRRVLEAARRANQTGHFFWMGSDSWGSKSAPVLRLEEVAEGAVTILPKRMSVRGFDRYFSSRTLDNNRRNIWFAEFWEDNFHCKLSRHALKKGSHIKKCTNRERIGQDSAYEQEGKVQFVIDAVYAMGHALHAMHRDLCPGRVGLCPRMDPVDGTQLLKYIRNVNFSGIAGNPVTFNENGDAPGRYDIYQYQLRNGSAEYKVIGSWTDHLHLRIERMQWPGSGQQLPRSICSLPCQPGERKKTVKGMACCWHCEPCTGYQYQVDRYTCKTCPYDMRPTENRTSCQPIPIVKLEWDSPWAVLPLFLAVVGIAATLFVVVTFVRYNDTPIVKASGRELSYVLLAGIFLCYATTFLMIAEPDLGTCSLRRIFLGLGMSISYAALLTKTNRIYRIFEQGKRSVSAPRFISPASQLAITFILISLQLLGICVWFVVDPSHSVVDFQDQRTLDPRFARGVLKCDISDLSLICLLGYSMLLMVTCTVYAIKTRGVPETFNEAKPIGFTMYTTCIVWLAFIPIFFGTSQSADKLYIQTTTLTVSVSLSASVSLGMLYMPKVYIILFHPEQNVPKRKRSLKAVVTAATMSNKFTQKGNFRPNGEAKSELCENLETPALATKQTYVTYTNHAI

striato-pallidal synapse = test: Brain slice whole-cell patch-clamp, evoked IPSCs at striato-pallidal synapse; parameters: species or system rat; conditions: for effect on striato-pallidal transmission, compound alone: L-AP4 1 μM, PHCCC 30 μM, rat brain slice
Description: Animals: All studies were performed in an AAALAC accredited facility in accordance with all applicable guidelines regarding the care and use of animals. Animals were group housed with access to food and water ad libitum. Slice Preparation: All experiments were performed on slices from 26 to 30-d-old Sprague Dawley rats (Taconic, Germantown, N.Y.). Animals were killed by decapitation and brains were rapidly removed and submerged in an ice-cold solution containing (in mM): choline chloride 126, KCl 2.5, NaH2PO4 1.2, MgCl2 1.3, MgSO4 8, glucose 10, and NaHCO3 26, equilibrated with 95% O2/5% CO2 (11). The brain was glued to the chuck of a vibrating blade microtome (Leics Microsystems, Nussloch GmbH) and parasagittal slices (300 μm thick) were obtained. Slices were immediately transferred to a 500 ml holding chamber containing artificial cerebrospinal fluid (in mM): NaCl 124, KCl 2.5, MgSO4 1.3, NaH2PO4 1.0, CaCl2 2, glucose 20, and NaHCO3 26, equilibrated with 95% O2/5% CO2 that was maintained at 32° C. After 20-min at 32° C., the holding chamber was allowed to gradually decrease to room temperature. In all experiments 5 μM glutathione, 500 μM pyruvate, and 250 μM kynurenic acid were included in the choline chloride buffer and in the holding chamber ACSF. Electrophysiology: Whole-cell patch-clamp recordings were obtained (Marino et al., (2001) J. Neurosci. 21: 7001-7012. During recording, slices were maintained fully submerged on the stage of a 1 ml brain slice chamber at 32° C. and perfused continuously with equilibrated ACSF (2-3 ml/min). Neurons were visualized using a differential interference contrast microscope and an infrared video system. Patch electrodes were pulled from borosilicate glass on a two-stage puller and had resistances in the range of 3-7 MΩ when filled with the following internal solution: (in mM): potassium gluconate 125, NaCl 4, NaH2PO4 6, CaCl2 1, MgSO4 2, BAPTA-tetrapotassium salt 10, HEPES 10, Mg-ATP 2, Na2-GTP 0.3, pH=7.4. All recordings were done using HEKA EPC9 patch clamp amplifiers (HEKA Elektronik, Lambrecht/Pfalz, Germany). […]

human mGluR4 [3] = target: T1, human mGluR4; test: FLIPR Ca2+ flux assay, human mGluR4; type: cell-based; parameters: expressed in transfected cells; host or cells: CHO or HEK cells, co-expressing Gαqi5; conditions: n=3, read-out: EC50 for L-AP4 activation of human mGluR4
Target sequence in this assay (Q14833 33-912): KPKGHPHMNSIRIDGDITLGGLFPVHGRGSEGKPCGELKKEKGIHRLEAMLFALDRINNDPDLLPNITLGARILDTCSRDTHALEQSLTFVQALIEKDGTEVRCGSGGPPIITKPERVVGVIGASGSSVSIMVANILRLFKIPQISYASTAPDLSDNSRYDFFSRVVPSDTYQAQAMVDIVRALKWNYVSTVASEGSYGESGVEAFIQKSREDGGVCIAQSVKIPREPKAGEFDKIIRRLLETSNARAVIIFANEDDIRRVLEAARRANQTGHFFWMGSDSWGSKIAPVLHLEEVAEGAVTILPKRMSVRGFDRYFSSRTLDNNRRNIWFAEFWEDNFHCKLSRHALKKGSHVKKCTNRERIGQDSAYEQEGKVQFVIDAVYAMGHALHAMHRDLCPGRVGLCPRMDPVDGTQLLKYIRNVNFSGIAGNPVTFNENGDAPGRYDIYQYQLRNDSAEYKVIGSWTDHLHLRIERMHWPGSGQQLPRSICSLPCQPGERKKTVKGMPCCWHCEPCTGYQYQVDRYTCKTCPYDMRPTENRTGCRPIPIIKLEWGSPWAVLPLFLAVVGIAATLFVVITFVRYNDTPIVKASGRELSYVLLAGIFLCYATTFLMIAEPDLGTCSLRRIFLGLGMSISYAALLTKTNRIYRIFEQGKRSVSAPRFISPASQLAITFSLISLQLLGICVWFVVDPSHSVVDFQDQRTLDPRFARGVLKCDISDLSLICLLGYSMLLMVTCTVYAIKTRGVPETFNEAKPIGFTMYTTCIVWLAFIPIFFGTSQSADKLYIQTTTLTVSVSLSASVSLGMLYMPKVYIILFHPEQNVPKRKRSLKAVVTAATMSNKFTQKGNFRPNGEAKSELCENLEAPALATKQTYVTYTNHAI
Description: as §1, §2

any other mGluR subtype = test: FLIPR Ca2+ flux assay, other mGluR subtypes (activation or potentiation); type: cell-based; conditions: 10 μM
mGluR1b = target: T3, mGluR1b (Homo sapiens, UniProt Q13255); test: FLIPR Ca2+ flux assay, mGluR1b antagonism; type: cell-based; conditions: 10 μM
T3 construct: expressed in transfected cells; host or cells: CHO or HEK cells

mGluR2 = target: T4, mGluR2 (Homo sapiens, UniProt Q14416); test: FLIPR Ca2+ flux assay, mGluR2 antagonism; type: cell-based; conditions: 10 μM
T4 construct: expressed in transfected cells; host or cells: CHO or HEK cells, co-expressing Gα16
T4 sequence (Q14416 19-872): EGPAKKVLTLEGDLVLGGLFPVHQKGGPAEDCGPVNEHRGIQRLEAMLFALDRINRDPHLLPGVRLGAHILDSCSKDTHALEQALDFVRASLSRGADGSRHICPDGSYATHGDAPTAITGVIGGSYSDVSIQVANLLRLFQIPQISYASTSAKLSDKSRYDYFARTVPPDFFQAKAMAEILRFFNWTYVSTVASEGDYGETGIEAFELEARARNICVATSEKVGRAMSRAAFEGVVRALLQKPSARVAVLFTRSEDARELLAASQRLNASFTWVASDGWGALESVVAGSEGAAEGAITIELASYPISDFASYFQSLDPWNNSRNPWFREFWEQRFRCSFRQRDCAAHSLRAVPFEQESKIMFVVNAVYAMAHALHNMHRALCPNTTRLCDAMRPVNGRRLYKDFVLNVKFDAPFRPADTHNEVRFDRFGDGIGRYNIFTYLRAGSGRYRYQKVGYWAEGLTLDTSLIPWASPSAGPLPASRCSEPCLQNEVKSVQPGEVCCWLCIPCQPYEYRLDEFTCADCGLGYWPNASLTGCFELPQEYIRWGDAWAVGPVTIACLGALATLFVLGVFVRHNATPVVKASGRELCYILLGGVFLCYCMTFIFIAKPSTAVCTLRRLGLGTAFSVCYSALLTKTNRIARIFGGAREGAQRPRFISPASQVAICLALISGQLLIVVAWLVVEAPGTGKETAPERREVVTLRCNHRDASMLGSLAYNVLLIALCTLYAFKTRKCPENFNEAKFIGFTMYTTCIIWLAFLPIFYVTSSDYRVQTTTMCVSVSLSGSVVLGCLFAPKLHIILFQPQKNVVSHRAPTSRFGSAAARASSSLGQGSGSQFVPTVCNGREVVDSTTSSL

mGluR5a = target: T5, mGluR5a (Homo sapiens, UniProt P41594); test: FLIPR Ca2+ flux assay, mGluR5a antagonism; type: cell-based; conditions: 10 μM
T5 construct: expressed in transfected cells; host or cells: CHO or HEK cells
T5 sequence (P41594 21-1180 isoform P41594-2 limits assumed): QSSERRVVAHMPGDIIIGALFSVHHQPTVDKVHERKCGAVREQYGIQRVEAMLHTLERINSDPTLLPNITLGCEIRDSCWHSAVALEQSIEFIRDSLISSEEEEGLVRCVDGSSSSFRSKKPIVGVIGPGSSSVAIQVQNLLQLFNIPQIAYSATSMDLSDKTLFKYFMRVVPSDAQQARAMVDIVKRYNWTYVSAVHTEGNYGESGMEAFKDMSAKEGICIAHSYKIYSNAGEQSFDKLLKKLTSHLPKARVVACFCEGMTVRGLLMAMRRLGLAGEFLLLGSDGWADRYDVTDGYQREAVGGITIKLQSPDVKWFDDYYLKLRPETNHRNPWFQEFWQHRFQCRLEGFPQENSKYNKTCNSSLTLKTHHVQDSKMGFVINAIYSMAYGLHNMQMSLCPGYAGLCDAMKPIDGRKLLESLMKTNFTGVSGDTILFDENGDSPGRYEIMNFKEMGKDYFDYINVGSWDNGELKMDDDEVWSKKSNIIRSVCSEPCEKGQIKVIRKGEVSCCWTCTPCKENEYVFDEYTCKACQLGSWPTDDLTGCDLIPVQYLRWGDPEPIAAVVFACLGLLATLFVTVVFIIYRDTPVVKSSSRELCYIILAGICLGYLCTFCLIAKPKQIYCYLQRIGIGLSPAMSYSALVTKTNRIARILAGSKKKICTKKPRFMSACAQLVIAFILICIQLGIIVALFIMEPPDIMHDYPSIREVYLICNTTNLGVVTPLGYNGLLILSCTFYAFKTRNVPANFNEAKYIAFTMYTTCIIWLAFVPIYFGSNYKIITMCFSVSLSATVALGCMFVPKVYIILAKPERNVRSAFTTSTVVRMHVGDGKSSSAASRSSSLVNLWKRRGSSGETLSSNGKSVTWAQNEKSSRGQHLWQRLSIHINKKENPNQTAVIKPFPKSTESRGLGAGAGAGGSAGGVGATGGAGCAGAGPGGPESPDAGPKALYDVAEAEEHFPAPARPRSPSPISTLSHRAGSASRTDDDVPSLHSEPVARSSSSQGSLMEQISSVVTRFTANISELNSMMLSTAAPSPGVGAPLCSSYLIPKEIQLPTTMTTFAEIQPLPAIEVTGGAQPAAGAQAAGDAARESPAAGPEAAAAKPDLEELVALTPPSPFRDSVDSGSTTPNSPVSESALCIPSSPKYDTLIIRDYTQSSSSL

mGluR8 = target: T6, mGluR8 (Homo sapiens, UniProt O00222); test: FLIPR Ca2+ flux assay, mGluR8 antagonism; type: cell-based; conditions: 10 μM
T6 construct: expressed in transfected cells; host or cells: CHO or HEK cells, co-expressing Gα15
T6 sequence (O00222 34-908, species assumed): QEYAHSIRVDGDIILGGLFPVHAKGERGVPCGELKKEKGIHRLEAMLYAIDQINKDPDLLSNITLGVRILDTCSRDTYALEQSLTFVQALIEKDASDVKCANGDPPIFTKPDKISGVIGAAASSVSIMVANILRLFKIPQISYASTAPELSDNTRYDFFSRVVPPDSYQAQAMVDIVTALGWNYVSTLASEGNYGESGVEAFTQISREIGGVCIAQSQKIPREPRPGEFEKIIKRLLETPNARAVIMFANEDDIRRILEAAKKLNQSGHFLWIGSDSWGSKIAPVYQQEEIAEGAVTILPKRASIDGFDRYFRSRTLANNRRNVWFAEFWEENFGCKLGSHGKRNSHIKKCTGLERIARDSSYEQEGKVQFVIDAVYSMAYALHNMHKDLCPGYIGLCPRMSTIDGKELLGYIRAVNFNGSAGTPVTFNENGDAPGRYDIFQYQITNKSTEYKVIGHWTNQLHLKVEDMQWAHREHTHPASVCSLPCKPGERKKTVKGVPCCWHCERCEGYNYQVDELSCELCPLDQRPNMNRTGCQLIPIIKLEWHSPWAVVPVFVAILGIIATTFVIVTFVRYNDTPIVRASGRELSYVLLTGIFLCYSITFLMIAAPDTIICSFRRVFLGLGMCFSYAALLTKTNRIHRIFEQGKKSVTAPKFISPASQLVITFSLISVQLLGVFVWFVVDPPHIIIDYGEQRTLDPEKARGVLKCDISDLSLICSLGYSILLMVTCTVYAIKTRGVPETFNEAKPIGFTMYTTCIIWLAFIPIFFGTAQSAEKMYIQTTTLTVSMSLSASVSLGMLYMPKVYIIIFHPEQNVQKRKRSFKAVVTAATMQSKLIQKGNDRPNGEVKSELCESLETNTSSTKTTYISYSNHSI

[4] = tested on: Schaffer collateral-CA1 (SC-CA1) synapse (mGluR7); test: Hippocampal field recordings (fEPSPs), SC-CA1 synapse; parameters: species or system rat; conditions: submaximal L-AP4; fEPSP slope
[5] = tested on: lateral perforant path-dentate gyrus (LPP-DG) synapse (mGluR8); test: Hippocampal field recordings (fEPSPs), LPP-DG synapse; parameters: species or system rat; conditions: submaximal L-AP4; fEPSP slope
mGluR4 = test: FLIPR Ca2+ flux assay in mGluR4 CHO cells; conditions: in the presence of 10 μM PHCCC
Description: as §1, §2

IC50 (human mGluR4 [2]; read-out: mGluR4 antagonist IC50, at higher concentrations) [nM]	Compound	locomotor activity (reversal of reserpine-induced akinesia) [1]	effect on the response of mGluR4 to agonists (potentiation) (human mGluR4 [2]; concentrations up to 30 μM)	EC50 (rat mGluR4; with 10 μM PHCCC) [nM]	EC50 (rat mGluR4; without PHCCC) [nM]	effect on striato-pallidal transmission, compound alone (striato-pallidal synapse)	EC50 (human mGluR4 [3]; in the absence of PHCCC) [nM]	EC50 (human mGluR4 [3]; with 10 μM PHCCC) [nM]	activation or potentiation of responses of other mGluR subtypes (any other mGluR subtype)	block of response of mGluR1b to glutamate (mGluR1b)	block of response of mGluR2 to glutamate (mGluR2)	block of response of mGluR5a to glutamate (mGluR5a)	block of response of mGluR8 to glutamate (mGluR8)	effect on striato-pallidal transmission, co-application with L-AP4 (striato-pallidal synapse; 30 μM PHCCC and 1 μM L-AP4, p<0.01, n=4)	effect on L-AP4-induced inhibition of transmission at SC-CA1 synapse [4]	effect on L-AP4-induced inhibition of transmission at LPP-DG synapse [5]	increase of the maximal effect of L-AP4 (mGluR4)
> 100000	7-(hydroxylimino)cyclopropa[b]chromen-1a-carboxamide ethyl ester [CPCCOEt]	no effect	no mGluR4 potentiator activity; also recorded: did not have any effect														
	NC(CCP(=O)(O)O)C(=O)O [L-AP4]			67.6 ± 5.2	832 ± 100	small but significant inhibition	484 ± 45	71.4 ± 2.9									
	N-phenyl-7-(hydroxylimino)cyclopropa[b]chromen-1a-carboxamide [PHCCC]	overcome inhibition of movement; also recorded: significant increase in locomotor activity				no effect			does not potentiate or activate any other mGluR subtype; also recorded: did not activate or potentiate	partially blocked	partially blocked	partially blocked	partially blocked	potentiate the effect of the mGluR4 agonist L-AP4 in inhibiting transmission; also recorded: marked inhibition	no significant effect	no significant effect	approximately two-fold
